Columns and labels:
MPO = assay: Human oxidative stress RT2 Profiler PCR array in HGEPp cells: MPO; details: 100 μg/ml, 24 h, RT-PCR ΔΔCt
Experimental: (§2) Pooled primary HGEPp cells were propagated in CnT-Prime epithelial culture medium provided by CellnTec on 100 mm petri dishes coated with 30 mg/ml Type I rat tail collagen (BD Biosciences) diluted in Dulbecco's phosphate-buffered saline (DPBS). HGEPp cells were grown in 12×60 mm Nunc™ Cell Culture dishes at a 2.5×10^4 cells/cm2 density concentration.
(§3) All dosing solutions contained 0.3% of DMSO which is well below the maximum tolerated DMSO percent of 0.8% for HGEPp cells.
(§4) The cDNA from above was mixed with the RT2 SYBR Green fluor Mastermix and aliquoted into the wells of the RT2 Profiler PCR Array. RT-PCR was performed on an iCycler. Gene expression was compared using Ct values and the results were calculated using ΔΔ Ct method with normalization to the average expression levels of the five common genes (ACTB, B2M, GAPDH, HPRT, and RPL13A).

SOD1 = assay: Human oxidative stress RT2 Profiler PCR array in HGEPp cells: SOD1; type: cell-based; details: 100 μg/ml, 24 h, RT-PCR ΔΔCt
Experimental: (§1) RT-PCR was performed on an iCycler.

GPX4 = assay: Human oxidative stress RT2 Profiler PCR array in HGEPp cells: GPX4; details: 100 μg/ml, 24 h, RT-PCR ΔΔCt
Experimental: as §2, §3, §4

UCP2 = assay: Human oxidative stress RT2 Profiler PCR array in HGEPp cells: UCP2; type: cell-based; details: 100 μg/ml, 24 h, RT-PCR ΔΔCt
Experimental: as §1

GSTP1 = assay: Human oxidative stress RT2 Profiler PCR array in HGEPp cells: GSTP1; type: cell-based; details: 100 μg/ml, 24 h, RT-PCR ΔΔCt
Experimental: as §1

GCLM = assay: Human oxidative stress RT2 Profiler PCR array in HGEPp cells: GCLM; type: cell-based; details: 100 μg/ml, 24 h, RT-PCR ΔΔCt
Experimental: as §1

GTF2i = assay: Human oxidative stress RT2 Profiler PCR array in HGEPp cells: GTF2i; type: cell-based; details: 100 μg/ml, 24 h, RT-PCR ΔΔCt
Experimental: as §1

GPX1 = assay: Human oxidative stress RT2 Profiler PCR array in HGEPp cells: GPX1; type: cell-based; details: 100 μg/ml, 24 h, RT-PCR ΔΔCt
Experimental: as §1

HGEPp cells [1] = assay: ROS production in H2O2-induced oxidatively stressed HGEPp cells; details: HGEPp cells pretreated 24 hrs at 100 μg/mL, then 0.3 mM H2O2 for 4 h; positive control 139%
NQO1 = assay: Human oxidative stress RT2 Profiler PCR array in HGEPp cells: NQO1; type: cell-based; details: 100 μg/ml, 24 h, RT-PCR ΔΔCt
Experimental: as §1

GCLC = assay: Human oxidative stress RT2 Profiler PCR array in HGEPp cells: GCLC; type: cell-based; details: 100 μg/ml, 24 h, RT-PCR ΔΔCt
Experimental: as §1

PTGS1 = assay: Human oxidative stress RT2 Profiler PCR array in HGEPp cells: PTGS1; type: cell-based; details: 100 μg/ml, 24 h, RT-PCR ΔΔCt
Experimental: as §1

PRDX2 = assay: Human oxidative stress RT2 Profiler PCR array in HGEPp cells: PRDX2; details: 100 μg/ml, 24 h, RT-PCR ΔΔCt
Experimental: as §2, §3, §4

ALOX12 = assay: Human oxidative stress RT2 Profiler PCR array in HGEPp cells: ALOX12; type: cell-based; details: 100 μg/ml, 24 h, RT-PCR ΔΔCt
Experimental: as §1

HGEPp cells [2] = details: 100 μg/mL pretreatment; taken from PCT/IB2017/001312; cited from earlier work

Compound | MPO up regulation relative fold change (MPO) [fold] | SOD1 up regulation relative fold change (SOD1) | GPX4 up regulation relative fold change (GPX4) [fold] | UCP2 down regulation relative fold change (UCP2) [fold] | GSTP1 up regulation relative fold change (GSTP1) | GCLM up regulation relative fold change (GCLM) | GTF2i down regulation relative fold change (GTF2i) [fold] | GPX1 up regulation relative fold change (GPX1) [fold] | ROS level (optical density, Normal = 100% baseline) (HGEPp cells [1]) [%] | NQO1 up regulation relative fold change (NQO1) | GCLC up regulation relative fold change (GCLC) | PTGS1 down regulation relative fold change (PTGS1) [fold] | PRDX2 down regulation relative fold change (PRDX2) [fold] | ALOX12 up regulation relative fold change (ALOX12) [fold] | ROS level (optical density, Normal = 100% baseline), as reported in PCT/IB2017/001312 (HGEPp cells [2]) [%] | SOD1 up regulation relative fold change (SOD1; listed as Ex. 10) [fold] | GSTP1 up regulation relative fold change (GSTP1; listed as Ex. 10) [fold] | GCLM up regulation relative fold change (GCLM; listed as Ex. 10) [fold] | NQO1 up regulation relative fold change (NQO1; listed as Ex. 10) [fold] | GCLC up regulation relative fold change (GCLC; listed as Ex. 10) [fold]
methyl iodide complex of oltipraz [Example 5] | 3.18 | 3.89 fold | 2.85 | 0.29 | 2.90 fold | 2.27 fold | 0.33 | 4.98 | 134 | 3.15 fold | 3.38 fold | 0.28 | 0.32 | 6.04 | – | – | – | – | – | –
Cc1c(-c2cnccn2)ssc1=S.Cl [Example 1, hydrochloride complex of oltipraz] | 3.22 | 3.86 fold | 2.86 | 0.26 | 2.77 fold | 2.33 fold | 0.33 | 4.81 | 128 | 3.14 fold | 3.35 fold | 0.28 | 0.31 | 6.38 | – | – | – | – | – | –
Cc1c(-c2cnccn2)ssc1=S [ST-617-API, 4-methyl-5-(pyrazin-2-yl)-3H-1,2-dithiole-3-thione, reference compound] | – | 2.46 fold | – | 0.18 | 2.17 fold | 3.03 fold | 0.34 | 4.88 | – | 2.95 fold | 4.14 fold | 0.22 | – | 6.15 | 124 | – | – | – | – | –
n-butyl chloride complex of oltipraz [Example 4] | 3.20 | 4.15 fold | 2.96 | 0.25 | 2.88 fold | 2.38 fold | 0.35 | 4.80 | 128 | 3.34 fold | 3.35 fold | 0.27 | 0.32 | 5.82 | – | – | – | – | – | –
Cc1c(-c2cncc[n+]2OC2=CC(=O)OC2=O)ssc1=S [Example 2, hydroxymaleate anhydride complex of oltipraz] | 3.21 | 5.13 fold | 2.84 | 0.15 | 3.07 fold | 3.01 fold | 0.26 | 4.8 | 116 | 4.07 fold | 4.52 fold | 0.23 | 0.26 | 6.46 | – | – | – | – | – | –
Cc1c(-c2cnccn2)ssc1=S.O=S(=O)(O)CCO [Example 10, isethionic acid complex of oltipraz] | 3.39 | significantly higher up-regulation | 2.79 | 0.16 | significantly higher up-regulation | significantly higher up-regulation | 0.31 | 4.86 | 113 | significantly higher up-regulation | significantly higher up-regulation | 0.22 | 0.28 | 6.48 | – | 5.23 | 3.18 | 3.11 | 4.26 | 4.52
acetyl chloride complex of oltipraz [Example 3] | 3.10 | 4.24 fold | 2.83 | 0.26 | 2.87 fold | 2.38 fold | 0.32 | 4.76 | 129 | 3.36 fold | 3.27 fold | 0.29 | 0.33 | 6.33 | – | – | – | – | – | –

From patent US12312343B2, “Rotomeric isomers of 4-alkyl-5-heteroaryl-3H-1,2-dithiole-3-thiones” (ST IP HOLDING AG, priority 2018, dated 2025)
